Results on 6 compounds are retold here after paper PMC7728344, “Pharmacokinetic Characterization of (Poly)phenolic Metabolites in Human Plasma and Urine after Acute and Short-Term Daily Consumption of Mango Pulp” (Molecules, 2020).

Read-outs that look alike come from different tables or passages of the source.

One series is described as follows: clinical. As to conditions: for AUC(0-t): read-out: AUC0–24h. The series is classed as in vivo, human. Further details: AUC0–24h: concentration or dose not given beside the values. On the procedure:
SPE procedure was conducted to extract and concentrate the (poly)phenolic compounds and their metabolites from the plasma samples. Briefly, plasma samples were thawed on ice and 500 µL plasma was diluted with 1.5 mL of 0.1% formic acid in water with addition of internal standards (2-methylhippuric acid (2 ng/mL), phloridizin (1 ng/mL)) before being loaded on preconditioned SPE cartridges. The cartridges were washed with 0.1% formic acid in water (1 mL) after loading with plasma samples. The elution of the compounds was achieved by 0.1% formic acid in methanol (1 mL) and the eluent was dried under nitrogen gas at room temperature. […] Supernatant was collected in amber HPLC vials before analysis.
The absorption and elimination of 11 major mango metabolites over 24 h was determined after MP, MP + VC, and VC intake. The plasma concentration/area at each time point was determined by the mean of 13 subjects. The time vs. concentration curves and the time vs. area curves were created using GraphPad Prism (version 8.2.1). […] Tmax is the time (h) when Cmax was achieved. Wilcoxon signed-rank test was used for Tmax analysis due to non-normal distribution. Area under the plasma concentration time curve (AUC0−24h, nmol·h/L) was calculated by the linear trapezoidal method using Microsoft Excel 2013, version 15 [63]. […]

Series [1] in a line: Concentration of (poly)phenolic metabolites in fasting urine at baseline, 24 h after single MP beverage and 15th day after 14-day MP intake (UHPLC-QQQ-MS). As to conditions: human, urine, oral. From the text:
The acute trial was a randomized, 3 arm, within-subject crossover study design (Figure 5A). The trial initiated with 3 days of food record collection to assess background (pre-study) dietary intake followed by counseling to adhere to a diet devoid of mango or its parts and relatively low in polyphenol-rich beverages/foods, which was maintained throughout the duration of the trial. […] In general, subjects were encouraged to follow their “usual” diet with the exception of foods/beverages that may interfere with the outcomes of the study. Food intake diaries and, phone call and email reminders helped subjects maintain compliance throughout the study period. After an initial 7-day run-in period on the limited polyphenol diet, subjects were assigned to a randomization sequence providing 1 of 3 study test beverages (recipes provided in Appendix A, Table A3) on three separate days in a random order: MP (500 g), MP (500 g) + VC (100 mg) or VC (100 mg) beverages. On each study day subjects arrived fasted and well hydrated. After standard admission procedures were completed (e.g., review of compliance with dietary requirements for 3 days prior to study day, dinner meal intake, usual sleep patterns), a catheter was placed by a registered nurse in subjects’ non-dominant arm and a fasting/baseline blood sample was collected (0 h). Subjects were provided with a standard breakfast meal 2 h after the study beverages. The breakfast meal was comprised of a buttermilk biscuit with butter and jelly, and scrambled egg white with shredded white cheddar cheese. After the 6 h blood collection, subjects ate a low polyphenol lunch consisting of dry roasted peanuts and fresh peeled cucumber with ranch dressing (Appendix A, Table A3).
Spot urine samples were collected in urine collection cups, immediately placed on ice and then aliquoted into individual cryovials. All the samples were stored at −80 °C until analysis.
A 14-day feeding trial was conducted with the MP only to study the effect of repetitive intake of MP on (poly)phenolic metabolite profiles. Upon completion of the acute trial, subjects were instructed to continue on the low polyphenolic diet for 2 weeks while consuming MP beverages (provided by CNRC) daily in the morning (250 g MP + 50 g water) and evening (250 g MP + 50 g water). On day 14, subjects consumed both beverages (500 g of MP in total) in the morning and reported to the CNRC on the 15th day after an overnight fast to provide a fasting blood and urine sample (Figure 5B). Blood and urine samples were collected as described above and stored at −80 °C until analysis.
The supernatant was collected and filtered through 0.2 µm polypropylene syringe filter before HPLC analysis.
The ESI conditions were the same as those used in the UHPLC-Q-TOF analysis. The quantification of the compounds was conducted by multiple-reaction monitoring (MRM) transitions. Spectra were recorded in both positive- and negative-ion mode with capillary voltage of 4500 V and drying gas flow rate of 9 L/min at 200 °C. The sheath gas temperature and flow rate were 300 °C and 11 L/min, respectively. Standards were optimized for collision energies, fragmentor voltages and MRM transitions using Mass Hunter Optimizer. The MRM transition for metabolites were created based on the results from UHPLC-Q-TOF-MS. Standards for plasma analysis were prepared in blank plasma (charcoal-stripped human plasma obtained from Bioreclamation IVT) for matrix match and for urine analysis were prepared in SMP.
The flow rate was maintained at 0.4 mL/min and the injection volume was 5 μL. The mobile phase consisted of acidified water (0.1% formic acid) (A) and acidified acetonitrile (0.1% formic acid) (B). The gradient for the separation of compounds was as follows: 5 to 5% B from 0 to 1 min; 10% B at 3 min; 15% B at 7 min; 15% B at 9 min; 20% B at 10 min; 20% B at 11 min; 25% B at 12 min; 30% B at 13 min; 30% B at 14 min; 95% B at 15 min; and back to 5% B at 16 min.

The mark [2] stands for this setting: human plasma, 0−24 h, after VC (vitamin C 100 mg) beverage, mean ± standard error, read-out: Cmax.
Setting [3] is: human plasma, after VC beverage, mean ± standard error.

For `O=C(O)c1cc(O)c(O)c(O)c1` [Compound C1, gallic acid], the “time within which absorbed” value in “clinical” (after acute mango intake) is 1 to 2 h. For the same compound, the “difference in plasma concentrations/areas after MP + VC beverage compared to MP beverage alone” value in the series “clinical” (increase observed, statistical outcome) is “not statistically significant”. Also, the AUC(0-t) in the series “clinical” (oral, 100 mg, human plasma, after VC beverage, mean ± standard error) came to 0.0249 ± 0.0019 µM·h; in “clinical” (oral, 500 g, human plasma, after MP beverage, linear trapezoidal method, mean ± standard error) it was 0.0645 ± 0.0078 µM·h; in “clinical” (oral, human plasma, after MP + VC beverage, mean ± standard error), 0.0628 ± 0.0069 µM·h. For the same compound, the Tmax is 2.2 ± 0.4 h in the series “clinical” (oral, 500 g, human plasma, after MP beverage, mean ± standard error, read-out: Tmax) and 2 ± 0.3 h in the series “clinical” (oral, human plasma, after MP + VC beverage, mean ± standard error, read-out: Tmax). For the same compound, the Cmax came to 20.4 ± 3.1 nM in “clinical” (oral, human plasma, 0−24 h, after MP (mango pulp 500 g) beverage, mean ± standard error, n = 13, read-out: Cmax); 21.1 ± 3.9 nM in the series “clinical” (oral, human plasma, 0−24 h, after MP + VC (mango pulp 500 g + vitamin C 100 mg) beverage, mean ± standard error, read-out: Cmax); 5.3 ± 1.3 nM in “clinical” (oral, human plasma, 0−24 h, after VC (vitamin C 100 mg) beverage, mean ± standard error, read-out: Cmax). In addition, the concentration at 15 day in series [1] stood at 100 nM. In addition, the concentration at 0 h in series [1] (500 g) worked out at 200 nM. For the same compound, the concentration at 24 h in series [1] (500 g) came out at 200 nM.

In the case of methylgallic acid [Compound C3], the Cmax in “clinical” (setting [2]) worked out at 4.8 ± 0.7 nM. Further, the “AUC0–24h” value in the series “clinical” (setting [3]) came out at 0.0259 ± 0.0019 µM·h. Moreover, in the series “clinical” (human, in vivo), the “AUC0–24h” value worked out at 0.1611 ± 0.0136 µM·h, the Cmax came to 54.5 ± 4.9 nM and the Tmax was 2.2 ± 0.3 h. In addition, the “difference in plasma concentrations/areas after MP + VC beverage compared to MP beverage alone” value in the series “clinical” (in vivo) was “not statistically significant”.

Turning to methylgallic acid sulfate [Compound C4], the Cmax in “clinical” (setting [2]) turned out to be 6.3 ± 1.6 nM. Also, in “clinical” (setting [3]), the “AUC0–24h” value turned out to be 0.0247 ± 0.003 µM·h. In addition, in “clinical” (human, in vivo), the “AUC0–24h” value was 1.6558 ± 0.274 µM·h, the Cmax stood at 824 ± 131 nM and the time of peak concentration (Tmax) is on record as 2.2 ± 0.2 h. In addition, the “difference in plasma concentrations/areas after MP + VC beverage compared to MP beverage alone” value in “clinical” (in vivo) is listed as “not statistically significant”.

As to “methylpyrogallol glucuronide [Compound C9]”, the Tmax in the series “clinical” (setting [3]) was 8.0 ± 2.3 h.

On to “methylpyrogallol sulfate isomer 1 [Compound C6]”, for which the Cmax in “clinical” (setting [2]) was determined as 35.8 ± 9.5 nM. In addition, the “AUC0–24h” value in the series “clinical” (setting [3]) came to 0.1295 ± 0.036 µM·h.

As to “methylpyrogallol sulfate isomer 2 [Compound C7]”, the Cmax in the series “clinical” (setting [2]) came to 76.6 ± 24.9 nM. Also, the “AUC0–24h” value in the series “clinical” (setting [3]) was found to be 0.2166 ± 0.0545 µM·h.
